# Laboratory results taken from PubChem BioAssay AID2060501 (Molecular Pharmacology Branch, DTP, NCI, 2025).
# System: 282377-053-R-J1-PDC complex spheroids, viability
# Test: Anticancer human tumor 282377-053-R-J1-PDC patient-derived colon adenocarcinoma cell line growth inhibition [GQUAD]
# Settings: for IC50: curve of first compound; for viability, T/C: stronger effect = lower value
# Outline: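 Viability of tumor cells grown as complex spheroids with endothelial and stromal cells, exposed to drug combinations. Top concentration at or near clinical Cmax (else 10 microM), diluted in half-log increments.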
# 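Further: spheroids exposed to compounds for 7 days before readout.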
# 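Wherever viability, T/C is given: percent of vehicle DMSO control viability with 100% = untreated-like growth.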
compound,measurement,setting,value
COc1cc(C2c3cc4c(cc3C(OC3OC5COC(C)OC5C(O)C3O)C3COC(=O)C23)OCO4)cc(OC)c1O (configuration not stated) + Cc1[nH]c2ccc(F)cc2c1-c1nc2c3cccnc3c3ncccc3c2[nH]1,IC50,second compound 0.0316 µM,> 10 µM
same,IC50,second compound 0.1 µM,> 10 µM
same,IC50,second compound 0.316 µM,> 10 µM
same,IC50,second compound 1 µM,> 10 µM
same,IC50,second compound 3.16 µM,1.23 µM
same,IC50,second compound 10 µM,0.384 µM
same,"viability, T/C","second compound 0.0316 µM, first compound 0.0316 µM",99.9%
same,"viability, T/C","second compound 0.0316 µM, first compound 0.1 µM",102%
same,"viability, T/C","second compound 0.0316 µM, first compound 0.316 µM",104%
same,"viability, T/C","second compound 0.0316 µM, first compound 1 µM",89%
same,"viability, T/C","second compound 0.0316 µM, first compound 3.16 µM",66.5%
same,"viability, T/C","second compound 0.0316 µM, first compound 10 µM",62.6%
same,"viability, T/C","second compound 0.1 µM, first compound 0.0316 µM",94.3%
same,"viability, T/C","second compound 0.1 µM, first compound 0.1 µM",108%
same,"viability, T/C","second compound 0.1 µM, first compound 0.316 µM",83.5%
same,"viability, T/C","second compound 0.1 µM, first compound 1 µM",98.2%
same,"viability, T/C","second compound 0.1 µM, first compound 3.16 µM",76.4%
same,"viability, T/C","second compound 0.1 µM, first compound 10 µM",70.1%
same,"viability, T/C","second compound 0.316 µM, first compound 0.0316 µM",102%
same,"viability, T/C","second compound 0.316 µM, first compound 0.1 µM",117%
same,"viability, T/C","second compound 0.316 µM, first compound 0.316 µM",96.2%
same,"viability, T/C","second compound 0.316 µM, first compound 1 µM",105%
same,"viability, T/C","second compound 0.316 µM, first compound 3.16 µM",76.9%
same,"viability, T/C","second compound 0.316 µM, first compound 10 µM",54.2%
same,"viability, T/C","second compound 1 µM, first compound 0.0316 µM",113%
same,"viability, T/C","second compound 1 µM, first compound 0.1 µM",95.5%
same,"viability, T/C","second compound 1 µM, first compound 0.316 µM",95.2%
same,"viability, T/C","second compound 1 µM, first compound 1 µM",94.1%
same,"viability, T/C","second compound 1 µM, first compound 3.16 µM",72%
same,"viability, T/C","second compound 1 µM, first compound 10 µM",54.4%
same,"viability, T/C","second compound 3.16 µM, first compound 0.0316 µM",72.5%
same,"viability, T/C","second compound 3.16 µM, first compound 0.1 µM",85.6%
same,"viability, T/C","second compound 3.16 µM, first compound 0.316 µM",73.5%
same,"viability, T/C","second compound 3.16 µM, first compound 1 µM",56%
same,"viability, T/C","second compound 3.16 µM, first compound 3.16 µM",24.8%
same,"viability, T/C","second compound 3.16 µM, first compound 10 µM",23.2%
same,"viability, T/C","second compound 10 µM, first compound 0.0316 µM",52.7%
same,"viability, T/C","second compound 10 µM, first compound 0.1 µM",44%
same,"viability, T/C","second compound 10 µM, first compound 0.316 µM",63.8%
same,"viability, T/C","second compound 10 µM, first compound 1 µM",32.7%
same,"viability, T/C","second compound 10 µM, first compound 3.16 µM",16.1%
same,"viability, T/C","second compound 10 µM, first compound 10 µM",17.5%
